Results published in patent publication US9073903B2, “Imidazole-2,4-dione inhibitors of casein kinase 1” (Jasco Pharmaceuticals, LLC, priority 2010, dated 2015).
Read-outs that look alike come from different tables or passages of the source.

Experiments:
MDA-MB-468 cells = assay: Inhibition of MDA-MB-468 cells (MTS cell proliferation); type: cell-based; settings: for OD value 1 / OD value 2: 490 nm; for OD value 1 / OD value 2 / inhibition at 0.4 µM / inhibition at 0.8 µM / inhibition at 1.6 µM / inhibition at 3.2 µM / inhibition at 6.25 µM / inhibition at 12.5 µM / inhibition at 25 µM / inhibition at 50 µM / inhibition at 100 µM: 72 h; for inhibition at 0.4 µM / inhibition at 0.8 µM / inhibition at 1.6 µM / inhibition at 3.2 µM / inhibition at 6.25 µM / inhibition at 12.5 µM / inhibition at 25 µM / inhibition at 50 µM / inhibition at 100 µM / IC50: Homo sapiens
Experimental: Inhibition of MDA-MB-468 Cells Cells: MDA-MB-468 cells, ATCC Passage unknown, Mycoplasma free. Medium: RPMI-1640 Medium (GIBCO Cat #22400121) supplemented with 10% fetal bovine serum (Hyclone Cat #SH30396.03). Seeding: 2,000 cells/well (100 ul) into 96-wells plate, incubated overnight at 37° C. in a humidified, 5% CO2 atmosphere. Treatment: Test compounds and Gemcitabine were prepared in a serial dilution (1:2) by culture medium. Fifty microliters (50 uL) of serially diluted solutions were added into each well. The final concentrations of the positive control and test compounds were shown in the graphs. The cells were incubated for 72 hours after addition of the test compounds. MTS: 15 uL of MTS solution (Promega Cat #G5430) was added into each well and incubated with cells for 4 hours at 37° C. in a humidified, 5% CO2 atmosphere. Measurement: Absorbance at 490 nm was measured using MD Spectramax Plus384 spectrophotometer. The regression curves were calculated by the GraphPad Prism 5 using “log(inhibitor) vs response—variable slope”.

LNCaP = assay: Inhibition of LNCaP cells (MTS cell proliferation); type: cell-based; settings: for OD value 1 / OD value 2: 490 nm; for OD value 1 / OD value 2 / inhibition at 0.4 µM / inhibition at 0.8 µM / inhibition at 1.6 µM / inhibition at 3.2 µM / inhibition at 6.25 µM / inhibition at 12.5 µM / inhibition at 25 µM / inhibition at 50 µM / inhibition at 100 µM: 72 h; for inhibition at 0.4 µM / inhibition at 0.8 µM / inhibition at 1.6 µM / inhibition at 3.2 µM / inhibition at 6.25 µM / inhibition at 12.5 µM / inhibition at 25 µM / inhibition at 50 µM / inhibition at 100 µM / IC50: Homo sapiens
Experimental: Inhibition of LNCaP Cells Cells: LNCaP, ATCC Passage unknown, Mycoplasma free. Medium: RPMI-1640 Medium (GIBCO Cat #22400121) supplemented with 10% fetal bovine serum (Hyclone Cat #SH30396.03). Seeding: 3,000 cells/well (100 uL) into 96-wells plate, incubated overnight at 37° C. in a humidified, 5% CO2 atmosphere. Treatment: Test compounds and Gemcitabine were prepared in a serial dilution (1:2) by culture medium. Fifty microliters (50 uL) of serially diluted solutions were added into each well. The final concentrations of the positive control and test compounds were shown in the graphs. The cells were incubated for 72 hours after addition of the test compounds. MTS: 15 uL of MTS solution (Promega Cat #G5430) was added into each well and incubated with cells for 4 hours at 37° C. in a humidified, 5% CO2 atmosphere. Measurement: Absorbance at 490 nm was measured using MD Spectramax Plus384 spectrophotometer. The regression curves were calculated by the GraphPad Prism 5 using “log(inhibitor) vs response—variable slope”. Calculation: % of inhibition+(AVE zero ctrl−AVE compound)/AVE zero ctrl*100.

Nc1ccn([C@@H]2O[C@H](CO)[C@@H](O)C2(F)F)c(=O)n1 [Gemcitabine]
OD value 1 (MDA-MB-468 cells; 0.400 μM, replicate 1): 0.313
OD value 2 (MDA-MB-468 cells; 0.400 μM, replicate 2): 0.337
OD value 1 (MDA-MB-468 cells; 0.800 μM, replicate 1): 0.275
OD value 2 (MDA-MB-468 cells; 0.800 μM, replicate 2): 0.310
OD value 1 (MDA-MB-468 cells; 1.600 μM, replicate 1): 0.201
OD value 2 (MDA-MB-468 cells; 1.600 μM, replicate 2): 0.264
OD value 1 (MDA-MB-468 cells; 3.200 μM, replicate 1): 0.151
OD value 2 (MDA-MB-468 cells; 3.200 μM, replicate 2): 0.192
OD value 1 (MDA-MB-468 cells; 6.250 μM, replicate 1): 0.101
OD value 2 (MDA-MB-468 cells; 6.250 μM, replicate 2): 0.105
OD value 1 (MDA-MB-468 cells; 12.500 μM, replicate 1): 0.066
OD value 2 (MDA-MB-468 cells; 12.500 μM, replicate 2): 0.053
OD value 1 (MDA-MB-468 cells; 25.000 μM, replicate 1): 0.033
OD value 2 (MDA-MB-468 cells; 25.000 μM, replicate 2): 0.035
OD value 1 (MDA-MB-468 cells; 50.000 μM, replicate 1): 0.064
OD value 2 (MDA-MB-468 cells; 50.000 μM, replicate 2): 0.064
OD value 1 (MDA-MB-468 cells; 100.000 μM, replicate 1): 0.034
OD value 2 (MDA-MB-468 cells; 100.000 μM, replicate 2): 0.007
inhibition at 0.4 µM (MDA-MB-468 cells; MDA-MB-468, 0.400 μM, replicate 1, read-out: % of inhibition 1): 6.01%
inhibition at 0.4 µM (MDA-MB-468 cells; MDA-MB-468, 0.400 μM, replicate 2, read-out: % of inhibition 2): 1.17%
inhibition at 0.8 µM (MDA-MB-468 cells; MDA-MB-468, 0.800 μM, replicate 1, read-out: % of inhibition 1): 17.4%
inhibition at 0.8 µM (MDA-MB-468 cells; MDA-MB-468, 0.800 μM, replicate 2, read-out: % of inhibition 2): 9.08%
inhibition at 1.6 µM (MDA-MB-468 cells; MDA-MB-468, 1.600 μM, replicate 1, read-out: % of inhibition 1): 39.6%
inhibition at 1.6 µM (MDA-MB-468 cells; MDA-MB-468, 1.600 μM, replicate 2, read-out: % of inhibition 2): 22.6%
inhibition at 3.2 µM (MDA-MB-468 cells; MDA-MB-468, 3.200 μM, replicate 1, read-out: % of inhibition 1): 54.7%
inhibition at 3.2 µM (MDA-MB-468 cells; MDA-MB-468, 3.200 μM, replicate 2, read-out: % of inhibition 2): 43.6%
inhibition at 6.25 µM (MDA-MB-468 cells; MDA-MB-468, 6.250 μM, replicate 1, read-out: % of inhibition 1): 69.7%
inhibition at 6.25 µM (MDA-MB-468 cells; MDA-MB-468, 6.250 μM, replicate 2, read-out: % of inhibition 2): 69.1%
inhibition at 12.5 µM (MDA-MB-468 cells; MDA-MB-468, 12.500 μM, replicate 1, read-out: % of inhibition 1): 80.2%
inhibition at 12.5 µM (MDA-MB-468 cells; MDA-MB-468, 12.500 μM, replicate 2, read-out: % of inhibition 2): 84.4%
inhibition at 25 µM (MDA-MB-468 cells; MDA-MB-468, 25.000 μM, replicate 1, read-out: % of inhibition 1): 90.1%
inhibition at 25 µM (MDA-MB-468 cells; MDA-MB-468, 25.000 μM, replicate 2, read-out: % of inhibition 2): 89.6%
inhibition at 50 µM (MDA-MB-468 cells; MDA-MB-468, 50.000 μM, replicate 1, read-out: % of inhibition 1): 80.8%
inhibition at 50 µM (MDA-MB-468 cells; MDA-MB-468, 50.000 μM, replicate 2, read-out: % of inhibition 2): 81.1%
inhibition at 100 µM (MDA-MB-468 cells; MDA-MB-468, 100.000 μM, replicate 1, read-out: % of inhibition 1): 89.8%
inhibition at 100 µM (MDA-MB-468 cells; MDA-MB-468, 100.000 μM, replicate 2, read-out: % of inhibition 2): 97.8%
IC50 (MDA-MB-468 cells; MDA-MB-468, Table 17, read-out: MDA-MB-468* 50% inhibition concentration): 3.34 µM
IC50 (MDA-MB-468 cells; Table 26, MDA-MB-468, 72 hours, read-out: 50% viability conc.): 3.34 µM
IC50 (MDA-MB-468 cells; Table 26, MDA-MB-468, 72 hours, read-out: IC50): 2.53 µM
Maximal inhibition % (MDA-MB-468 cells; Table 26, MDA-MB-468, 72 hours): 93.83%
OD value 1 (LNCaP; 0.400 uM, replicate 1): 0.578
OD value 2 (LNCaP; 0.400 uM, replicate 2): 0.662
OD value 1 (LNCaP; 0.800 uM, replicate 1): 0.459
OD value 2 (LNCaP; 0.800 uM, replicate 2): 0.434
OD value 1 (LNCaP; 1.600 uM, replicate 1): 0.448
OD value 2 (LNCaP; 1.600 uM, replicate 2): 0.472
OD value 1 (LNCaP; 3.200 uM, replicate 1): 0.322
OD value 2 (LNCaP; 3.200 uM, replicate 2): 0.337
OD value 1 (LNCaP; 6.250 uM, replicate 1): 0.182
OD value 2 (LNCaP; 6.250 uM, replicate 2): 0.190
OD value 1 (LNCaP; 12.500 uM, replicate 1): 0.166
OD value 2 (LNCaP; 12.500 uM, replicate 2): 0.173
OD value 1 (LNCaP; 25.000 uM, replicate 1): 0.101
OD value 2 (LNCaP; 25.000 uM, replicate 2): 0.177
OD value 1 (LNCaP; 50.000 uM, replicate 1): 0.124
OD value 2 (LNCaP; 50.000 uM, replicate 2): 0.202
OD value 1 (LNCaP; 100.000 uM, replicate 1): 0.112
OD value 2 (LNCaP; 100.000 uM, replicate 2): 0.197
inhibition at 0.4 µM (LNCaP; LNCaP, 0.400 uM, replicate 1, read-out: % of inhibition 1): 12.8%
inhibition at 0.4 µM (LNCaP; LNCaP, 0.400 uM, replicate 2, read-out: % of inhibition 2): 13.6%
inhibition at 0.8 µM (LNCaP; LNCaP, 0.800 uM, replicate 1, read-out: % of inhibition 1): 30.8%
inhibition at 0.8 µM (LNCaP; LNCaP, 0.800 uM, replicate 2, read-out: % of inhibition 2): 43.4%
inhibition at 1.6 µM (LNCaP; LNCaP, 1.600 uM, replicate 1, read-out: % of inhibition 1): 32.4%
inhibition at 1.6 µM (LNCaP; LNCaP, 1.600 uM, replicate 2, read-out: % of inhibition 2): 38.4%
inhibition at 3.2 µM (LNCaP; LNCaP, 3.200 uM, replicate 1, read-out: % of inhibition 1): 51.4%
inhibition at 3.2 µM (LNCaP; LNCaP, 3.200 uM, replicate 2, read-out: % of inhibition 2): 56%
inhibition at 6.25 µM (LNCaP; LNCaP, 6.250 uM, replicate 1, read-out: % of inhibition 1): 72.5%
inhibition at 6.25 µM (LNCaP; LNCaP, 6.250 uM, replicate 2, read-out: % of inhibition 2): 75.2%
inhibition at 12.5 µM (LNCaP; LNCaP, 12.500 uM, replicate 1, read-out: % of inhibition 1): 75%
inhibition at 12.5 µM (LNCaP; LNCaP, 12.500 uM, replicate 2, read-out: % of inhibition 2): 77.4%
inhibition at 25 µM (LNCaP; LNCaP, 25.000 uM, replicate 1, read-out: % of inhibition 1): 84.8%
inhibition at 25 µM (LNCaP; LNCaP, 25.000 uM, replicate 2, read-out: % of inhibition 2): 76.9%
inhibition at 50 µM (LNCaP; LNCaP, 50.000 uM, replicate 1, read-out: % of inhibition 1): 81.3%
inhibition at 50 µM (LNCaP; LNCaP, 50.000 uM, replicate 2, read-out: % of inhibition 2): 73.6%
inhibition at 100 µM (LNCaP; LNCaP, 100.000 uM, replicate 1, read-out: % of inhibition 1): 83.1%
inhibition at 100 µM (LNCaP; LNCaP, 100.000 uM, replicate 2, read-out: % of inhibition 2): 74.3%
IC50 (LNCaP; LNCaP, Table 18, read-out: LNCaP* 50% inhibition concentration): 1.97 µM
IC50 (LNCaP; Table 26, LNCaP, 72 hours, read-out: 50% viability conc.): 1.97 µM
IC50 (LNCaP; Table 26, LNCaP, 72 hours, read-out: IC50): 2.38 µM
Maximal inhibition % (LNCaP; Table 26, LNCaP, 72 hours): 78.69%
